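Each compound was tested at five concentrations against cells in 96-well plates for 48 hours. At the GI50, growth is halved.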 Calls of active or inactive are those of the source. Cut-off read from the data, not from the text of the source: active = GI50 up to about 1.1 µM and inactive = higher. Starred links: 1 amine or outer side, 2 acyl side, 3 side chain; linkers in the order of their positions; H or OH if unused. Positions of bridges follow the written chain, without caps; N, C: chain ends. Non-standard residues stand in square brackets, D forms with d. Residues, ends and D or L forms follow the SMILES beside them. Chains are numbered I, II in the order given. ξ: configuration not given here. X42 = N=C(N)NCCC[C@H](NC(=N)CCCCCCC(=N)N[C@@H](CCCNC(=N)N)C(=O)[*:2])C(=O)[*:1]; Oic(3aξ,7aξ) = O=C(O)[C@@H]1CC2CCCCC2N1; Igl = N[C@H](C(=O)O)C1Cc2ccccc2C1; Hyp = O=C(O)[C@@H]1C[C@@H](O)CN1 A value given as a limit tells only on which side of the number the result lay.

Holding throughout (assay): NCI-60 cell line screen, 48 h
Assay [1] relates to NCI-H226.
The subject of assay [2] is HT-29.
Assay [3] has as its system SF-295.
Assay [4] relates to U-251.
Assay [5] relates to MDA-MB-231.
Assay [6] has as its system UO-31.
The subject of assay [7] is HOP-62.
The subject of assay [8] is TK-10.
Assay [9] relates to SF-539.
The test system of assay [10] is NCI-H522.
Assay [11] relates to ACHN.
The subject of assay [12] is OVCAR-3.
In assay [13] the test system is SN12C.
The test system of assay [14] is COLO 205.
In assay [15] the test system is RXF 393.
Assay [16] deals with OVCAR-4.
Assay [17] has as its system OVCAR-8.
Assay [18] relates to HL-60.
The subject of assay [19] is MCF7.

With `O=[N+]([O-])C(/C=C(\Cl)n1nnc2ccccc21)=C(/Cl)n1nnc2ccccc21`, the GI50 in assay [1], in assay [2], in assay [3], in [4], in assay [5] and in assay [6] was > 100 µM (inactive) each time. Also, the GI50 in assay [7], in assay [8], in assay [9], in [10], in assay [11] and in [12] was > 100 µM (inactive) throughout. Further, the GI50 in assay [13], in assay [14], in assay [15] and in assay [16] was > 100 µM (inactive) throughout.

On to `Cc1nc(-c2nc(C)c(C(=O)/C=C/c3ccc(N(C)C)cc3)s2)sc1C(=O)/C=C/c1ccc(N(C)C)cc1`, for which the GI50 in assay [1] is > 100 µM (inactive); in [17], > 100 µM (inactive); in [2], > 10 µM (inactive); in [3], 31.9 µM (inactive); in [4] it was > 100 µM (inactive); in assay [6], > 100 µM (inactive). Besides, the GI50 in [7] is > 100 µM (inactive); in [8] it was > 100 µM (inactive); in assay [9], 41.7 µM (inactive); in assay [18], 46 µM (inactive); in assay [10], 31.3 µM (inactive); in [11], > 100 µM (inactive). In addition, the GI50 in assay [12] is > 100 µM (inactive); in assay [13], > 100 µM (inactive); in assay [14] it was > 100 µM (inactive); in assay [15], > 100 µM (inactive); in [16] it was 46 µM (inactive).

Regarding `COc1cc(CNC(=S)CCCCCCCCCCC(C)C)ccc1O`, the GI50 was 18.4 µM (inactive) in assay [1]; 49 µM (inactive) in assay [17]; 36.7 µM (inactive) in assay [2]; 43.7 µM (inactive) in [3]; 72.1 µM (inactive) in [4]; > 100 µM (inactive) in assay [5]. In addition, the GI50 in assay [6] was 11.9 µM (inactive); in assay [7] it was 58.6 µM (inactive); in [8] it was > 100 µM (inactive); in assay [9], > 100 µM (inactive); in [18], 13.3 µM (inactive); in [11], 58.7 µM (inactive). Besides, the GI50 in assay [13] was 92.3 µM (inactive); in assay [19], 41.5 µM (inactive); in assay [14], 70.6 µM (inactive); in [15], > 100 µM (inactive); in assay [16], 53.6 µM (inactive).

As to `N=C(N)NCCC[C@H](NC(=O)[C@@H]1CC2CCCCC2N1C(=O)[C@@H](NC(=O)[C@H](CO)NC(=O)[C@@H](NC(=O)CNC(=O)[C@@H]1CCCN1C(=O)[C@H](CCCNC(=N)N)NC(=O)[C@H](CCCNC(=N)N)NC(=N)CCCCCCC(=N)N[C@@H](CCCNC(=N)N)C(=O)N[C@@H](CCCNC(=N)N)C(=O)N1CCC[C@H]1C(=O)N1C[C@H](O)C[C@H]1C(=O)NCC(=O)N[C@H](C(=O)N[C@@H](CO)C(=O)N[C@H](C(=O)N1C2CCCCC2C[C@H]1C(=O)N[C@@H](CCCNC(=N)N)C(=O)O)C1Cc2ccccc2C1)C1Cc2ccccc2C1)C1Cc2ccccc2C1)C1Cc2ccccc2C1)C(=O)O` (some centres not stated) (I: RP[Hyp]G[Igl]S[Igl][Oic(3aξ,7aξ)]R-OH / II: RPG[Igl]S[Igl][Oic(3aξ,7aξ)]R-OH; linker I:N-II:N via X42), the GI50 in [2] is 0.138 µM (active); in assay [3] it was 1.86 µM (inactive); in [4] it was 2.48 µM (inactive); in [5], 1.69 µM (inactive); in assay [6], 5.43 µM (inactive); in assay [7] it was 2.23 µM (inactive). The GI50 is 2.76 µM (inactive) in [8]; 2.36 µM (inactive) in [9]; 0.15 µM (active) in assay [18]; 5.89 µM (inactive) in assay [10]; 1.91 µM (inactive) in assay [11]; 1.79 µM (inactive) in assay [12]. For the same compound, the GI50 in assay [13] was 2.07 µM (inactive); in assay [19], 1.99 µM (inactive); in assay [14] it was 1.69 µM (inactive); in assay [15], 1.34 µM (inactive); in [16] it was 2.73 µM (inactive).

The values are drawn from ChEMBL document CHEMBL1201862, “PubChem BioAssay data set” (2004).
